The source of these data is patent US7169785B2, “Methods and compositions of novel triazine compounds” (Reddy US Therapeutics, Inc., priority 2001, dated 2007).

Each structure is given as a SMILES string.

As a reminder, the IC50 is the midpoint of a concentration-inhibition curve.

The test system of experiment [1] is IL-6. Put plainly: AGE (G-HSA)-induced inflammatory response determined by IL-6 ELISA in HAEC. Type of experiment: cell-based, human. As to conditions: Homo sapiens; for activity at 10 µM: 24 h, Compds tested @ 10 uM; for IC50: IL6, unit inferred, read-out: IC50 (AGE stimulation of IL6). As for the experimental part: Human aortic endothelial cells (HAEC, Clonetics) were cultured according to manufacturer in growth medium (Clonetics): basal medium containing human epidermal growth factor, hydrocortisone, vascular endothelial growth factor, heparin binding growth factor-B, long R3-insulin-like growth factor-1, ascorbic acid, gentamicin/amphotericin and 5% FBS. These cell were allowed to reach at least 90% confluency before subjected to experimental treatments. […] Tumor necrosis factor α was from R&D Systems.
All treatments, compound-added and controls were carried out in serum free media containing 0.2% albumin. Media from all conditions were collected and used for IL-6 ELISA.
(§1) IL-6 ELISA was carried out using human IL-6 DuoSet ELISA development kit as described by manufacturer (R&D Systems). Mouse anti-human Il-6 was used as the capture antibody (2 ug/ml) and biotinylated goat anti-human IL-6 (200 ng/ml) was used as the detection antibody. Culture media were incubated with capture antibody (in 96 well) for 2 h at room temperature. Wells were washed three times with wash buffer (0.05% tween-20 in phosphate buffered saline (PBS) pH 7.4) followed by incubation with detection antibody for 2 h at room temperature. Following three washes wells were incubated with Streptavidin-HRP for 20 min. Color development was read at 450 nm in a Microplate reader.
(In general: ELISA stands for enzyme-linked immunosorbent assay.)

For experiment [2], the system named is IL-6. In words: TNF-α-induced IL-6 production determined by IL-6 ELISA in HAEC. Type of experiment: cell-based, human. As to conditions: Compds tested @ 10 uM, HAEC; for activity at 10 µM: Homo sapiens, 24 h, IL6, read-out: % IL6 production compare to TNF stimulation of IL6 (100%). As for the experimental part: Human aortic endothelial cells (HAEC, Clonetics) were cultured according to manufacturer in growth medium (Clonetics): basal medium containing human epidermal growth factor, hydrocortisone, vascular endothelial growth factor, heparin binding growth factor-B, long R3-insulin-like growth factor-1, ascorbic acid, gentamicin/amphotericin and 5% FBS. These cell were allowed to reach at least 90% confluency before subjected to experimental treatments. Glycated human serum albumin (G-HSA) was from US Biologicals. Tumor necrosis factor α was from R&D Systems.
[…] All treatments, compound-added and controls were carried out in serum free media containing 0.2% albumin. Media from all conditions were collected and used for IL-6 ELISA.
as §1

[3] abbreviates: IL6, read-out: % IL6 production compare to AGE stimulation of IL6 (100%).

With `CCN1CCCC1CNc1nc(Nc2ccc3c(c2)OCCO3)nc(NC2CCCCCC2)n1` (stereo not shown) [Compound 24, N^2-cycloheptyl-N^4-(2,3-dihydro-1,4-benzodioxin-6-yl)-N^6-[(1-ethyl-2-pyrrolidinyl)methyl]-1,3,5-triazine-2,4,6-triamine], the activity at 10 µM in experiment [1] (setting [3]) turned out to be 1%.

As to `CCN1CCCC1CNc1nc(NCCN2CCCCC2)nc(Nc2ccc(OC)c(F)c2)n1` (stereo not shown) [Compound 71, N^2-[(1-ethyl-2-pyrrolidinyl)methyl]-N^4-(3-fluoro-4-methoxyphenyl)-N^6-[2-(1-piperidinyl)ethyl]-1,3,5-triazine-2,4,6-triamine], the activity at 10 µM was found to be 29% in experiment [1] (setting [3]) and 1% in experiment [2].

For the compound `CCN1CCCC1CNc1nc(NCC2CCCN2CC)nc(Nc2ccc(OC)c(F)c2)n1` (stereo not shown) [Compound 70, N^2,N^4-bis[(1-ethyl-2-pyrrolidinyl)methyl]-N^6-(3-fluoro-4-methoxyphenyl)-1,3,5-triazine-2,4,6-triamine], the activity at 10 µM in experiment [1] (setting [3]) amounted to 35%; in experiment [2] it was 1%.

For the compound `CCN1CCCC1CNc1nc(NC2CCCCCC2)nc(N(C)c2ccccc2C(F)(F)F)n1` (stereo not shown) [Compound 46, N^2-cycloheptyl-N^4-[(1-ethyl-2-pyrrolidinyl)methyl]-N^6-methyl-N^6-[2-(trifluoromethyl)phenyl]-1,3,5-triazine-2,4,6-triamine], in experiment [1] (setting [3]), the activity at 10 µM worked out at 3%.

As for `CCN1CCCC1CNc1nc(NC2CCCCCC2)nc(N(C)c2ccc(F)cc2F)n1` (stereo not shown) [Compound 43, N^2-cycloheptyl-N^4-(2,4-difluorophenyl)-N^6-[(1-ethyl-2-pyrrolidinyl)methyl]-N^4-methyl-1,3,5-triazine-2,4,6-triamine], the activity at 10 µM in experiment [1] (setting [3]) turned out to be 4%.

With `CCN1CCCC1CNc1nc(Nc2ccc3ncccc3c2)nc(NC2CCCCCC2)n1` (stereo not shown) [Compound 4, N^2-cycloheptyl-N^4-[(1-ethyl-2-pyrrolidinyl)methyl]-N^6-(6-quinolinyl)-1,3,5-triazine-2,4,6-triamine], in experiment [1] (setting [3]), the activity at 10 µM was 1%.

`CCN1CCCC1CNc1nc(NCCN(C)C)nc(Nc2ccc(OC)c(F)c2)n1` (stereo not shown) [Compound 68, N^2-[2-(dimethylamino)ethyl]-N^4-[(1-ethyl-2-pyrrolidinyl)methyl]-N^6-(3-fluoro-4-methoxyphenyl)-1,3,5-triazine-2,4,6-triamine]: the activity at 10 µM in experiment [1] (setting [3]) is 40%; in experiment [2], 1%. Besides, the IC50 in experiment [1] was 7.7 µM.

Consider `CCN1CCCC1CNc1nc(Nc2ccc(OC)c(F)c2)nc(N2CCN(CC(=O)N3CCCC3)CC2)n1` (stereo not shown) [Compound 69, N^2-[(1-ethyl-2-pyrrolidinyl)methyl]-N^4-(3-fluoro-4-methoxyphenyl)-N^6-{4-[2-oxo-2-(1-pyrrolidinyl)ethyl]-1-piperazinyl}-1,3,5-triazine-2,4-diamine], for which the activity at 10 µM amounted to 5% in experiment [1] (setting [3]) and 1% in experiment [2].

For `COc1ccc(Nc2nc(NCCCn3ccnc3)nc(NC3CCCCCC3)n2)cc1F` [Compound 100, N^2-cycloheptyl-N^4-(3-fluoro-4-methoxyphenyl)-N^6-[3-(1H-imidazol-1-yl)propyl]-1,3,5-triazine-2,4,6-triamine], in experiment [1] (setting [3]), the activity at 10 µM was found to be 1%.

With `CCN1CCCC1CNc1nc(NC2CCCCCC2)nc(N(CC#N)c2ccccc2)n1` (stereo not shown) [Compound 44, [(4-(cycloheptylamino)-6-{[(1-ethyl-2-pyrrolidinyl)methyl]amino}-1,3,5-triazin-2-yl)(phenyl)amino]acetonitrile], the activity at 10 µM in experiment [1] (setting [3]) came to 1%. Also, the IC50 in experiment [1] is 7.1 µM.

As to `CN1CCC(N(C)c2nc(Nc3ccc4ccccc4c3)nc(NC3CC3)n2)CC1` [Compound 180, N-Cyclopropyl-N′-methyl-N′-(1-methyl-piperidin-4-yl)-N″-naphthalen-2-yl-[1,3,5]triazine-2,4,6-triamine], the activity at 10 µM in experiment [1] (read-out: % IL6 production compare to AGE stimulation of IL6 (100%)) was 5%.

With `CCN1CCCC1CNc1nc(Nc2ccc(OC)c(F)c2)nc(N2CCN(C)CC2)n1` (stereo not shown) [Compound 62, N^2-[(1-ethyl-2-pyrrolidinyl)methyl]-N^4-(3-fluoro-4-methoxyphenyl)-6-(4-methyl-1-piperazinyl)-1,3,5-triazine-2,4-diamine], the activity at 10 µM in experiment [1] (setting [3]) turned out to be 42%.

Turning to `CCN1CCCC1CNc1nc(Nc2ccc(NC(C)=O)cc2)nc(NC2CCCCCC2)n1` (stereo not shown) [Compound 29, N-{4-[(4-(cycloheptylamino)-6-{[(1-ethyl-2-pyrrolidinyl)methyl]amino}-1,3,5-triazin-2-yl)-amino]phenyl}acetamide], the activity at 10 µM in experiment [1] (setting [3]) stood at 7%; in experiment [2], 13%.

Take `CCN1CCCC1CNc1nc(NC2CCCCCC2)nc(N(C)c2ccc(OC)cc2)n1` (stereo not shown) [Compound 42, N^2-cycloheptyl-N^4-[(1-ethyl-2-pyrrolidinyl)methyl]-N^6-(4-methoxyphenyl)-N^6-methyl-1,3,5-triazine-2,4,6-triamine]: the activity at 10 µM in experiment [1] (setting [3]) and in experiment [2] was 1% each time.

Take `CCN1CCCC1CNc1nc(Nc2scc(C)c2C(N)=O)nc(NC2CCCCCC2)n1` (stereo not shown) [Compound 39, 2-[(4-(cycloheptylamino)-6-{[(1-ethyl-2-pyrrolidinyl)methyl]amino}-1,3,5-triazin-2-yl)-amino]-4-methyl-3-thiophenecarboxamide]: in experiment [1] (setting [3]), the activity at 10 µM was determined as 28%.

`CCN1CCCC1CNc1nc(Nc2ccc(N(C)C)cc2)nc(NC2CCCCCC2)n1` (stereo not shown) [Compound 25, N^2-cycloheptyl-N^4-[4-(dimethylamino)phenyl]-N^6-[(1-ethyl-2-pyrrolidinyl)methyl]-1,3,5-triazine-2,4,6-triamine]: the activity at 10 µM in experiment [1] (setting [3]) came to 1%.

As for `CCN1CCCC1CNc1nc(NCC(F)(F)F)nc(Nc2ccc(OC)c(F)c2)n1` (stereo not shown) [Compound 67, N^2-[(1-ethyl-2-pyrrolidinyl)methyl]-N^4-(3-fluoro-4-methoxyphenyl)-N^6-(2,2,2-trifluoroethyl)-1,3,5-triazine-2,4,6-triamine], the activity at 10 µM in experiment [1] (setting [3]) was found to be 39%.

For the compound `CCOc1ccc(Nc2nc(NCC3CCCN3CC)nc(NC3CCCCCC3)n2)cc1` (stereo not shown) [Compound 32, N^2-cycloheptyl-N^4-(4-ethoxyphenyl)-N^6-[(1-ethyl-2-pyrrolidinyl)methyl]-1,3,5-triazine-2,4,6-triamine], the activity at 10 µM in experiment [1] (setting [3]) was 1%.

Turning to `CCN1CCCC1CNc1nc(NC2CCCCCC2)nc(N(CCC#N)c2ccccc2)n1` (stereo not shown) [Compound 41, 3-[(4-(cycloheptylamino)-6-{[(1-ethyl-2-pyrrolidinyl)methyl]amino}-1,3,5-triazin-2-yl)-(phenyl)amino]propanenitrile], the activity at 10 µM in experiment [1] (setting [3]) was 18%.

In the case of `CCN1CCCC1CNc1nc(Nc2ccc(F)cc2)nc(NC2CCCCCC2)n1` (stereo not shown) [Compound 10, N^2-cycloheptyl-N^4-[(1-ethyl-2-pyrrolidinyl)methyl]-N^6-(4-fluorophenyl)-1,3,5-triazine-2,4,6-triamine], the activity at 10 µM in experiment [1] (setting [3]) is 1%.

With `CCN1CCCC1CNc1nc(NCCCN2CCCC2=O)nc(Nc2ccc(OC)c(F)c2)n1` (stereo not shown) [Compound 74, 1-[3-({4-{[(1-ethyl-2-pyrrolidinyl)methyl]amino}-6-[(3-fluoro-4-methoxyphenyl)amino]-1,3,5-triazin-2-yl}amino)propyl]-2-pyrrolidinone], the activity at 10 µM in experiment [1] (setting [3]) was found to be 49%.

On to `CCN1CCCC1CNc1nc(NC2CCCCCC2)nc(N(C)c2cccc(Cl)c2)n1` (stereo not shown) [Compound 45, N^2-(3-chlorophenyl)-N^4-cycloheptyl-N^6-[(1-ethyl-2-pyrrolidinyl)methyl]-N^2-methyl-1,3,5-triazine-2,4,6-triamine], for which the activity at 10 µM in experiment [1] (setting [3]) was 1%.

Consider `CCN1CCCC1CNc1nc(NC2CCCCCC2)nc(N(C)c2ccc(Cl)cc2)n1` (stereo not shown) [Compound 40, N^2-(4-chlorophenyl)-N^4-cycloheptyl-N^6-[(1-ethyl-2-pyrrolidinyl)methyl]-N^2-methyl-1,3,5-triazine-2,4,6-triamine], for which the activity at 10 µM in experiment [1] (setting [3]) turned out to be 19%.

As to `CCN1CCCC1CNc1nc(Nc2ccc(C#N)cc2)nc(NC2CCCCCC2)n1` (stereo not shown) [Compound 11, 4-[(4-(cycloheptylamino)-6-{[(1-ethyl-2-pyrrolidinyl)methyl]amino}-1,3,5-triazin-2-yl)-amino]benzonitrile], in experiment [1] (setting [3]), the activity at 10 µM stood at 1%. In experiment [1], the IC50 was 8.87 µM.

For the compound `COc1ccc(Nc2nc(NC3CCCCCC3)nc(N3CCOCC3)n2)cc1F` [Compound 175, N-Cycloheptyl-N′-(3-fluoro-4-methoxy-phenyl)-6-morpholin-4-yl-[1,3,5]triazine-2,4-diamine], the “% IL6 production compare to TNF stimulation to IL6 (100%)” value in experiment [2] came out at 18%.
